Experimental data reported in ChEMBL document CHEMBL4339189, “Dissymmetric pyridyl-substituted 3,5-bis(arylidene)-4-piperidones as anti-hepatoma agents by inhibiting NF-κB pathway activation” (Eur J Med Chem, 2019).
Activity calls are given as the source filed them. The rule behind the calls is not given here.

Legend:
HepG2 [1] = assay: Induction of apoptosis in human HepG2 cells xenografted in Balb/c nude mouse assessed as reduction in Bcl-2 protein expression at 1 mg/kg, ip administered every 2 days for 20 days and measured every 2 days by immunohistochemistry; assay type: functional, organism-based
HepG2 [2] = assay: Induction of apoptosis in human HepG2 cells assessed as reduction in Bcl-2 expression up to 4 uM after 24 hrs by Western blot analysis; assay type: functional, cell-based
L02 = assay: Cytotoxicity against human LO2 cells assessed as reduction in cell viability incubated for 24 hrs by MTT assay; assay type: cell-based; conditions: L02, 24 h
[3] = molecular target: T1, NF-kappa-B inhibitor alpha (Mus musculus) (UniProt Q9Z1E3); assay: Inhibition of NFkappaB signalling activation in mouse RAW264.7 cells assessed as reduction in […] IkBalpha phosphorylation at 1 to 4 uM incubated for 2 hrs after pre-incubation with LPS for 15 mins by Western blot analysis; assay type: cell-based
T1 sequence (whole entry): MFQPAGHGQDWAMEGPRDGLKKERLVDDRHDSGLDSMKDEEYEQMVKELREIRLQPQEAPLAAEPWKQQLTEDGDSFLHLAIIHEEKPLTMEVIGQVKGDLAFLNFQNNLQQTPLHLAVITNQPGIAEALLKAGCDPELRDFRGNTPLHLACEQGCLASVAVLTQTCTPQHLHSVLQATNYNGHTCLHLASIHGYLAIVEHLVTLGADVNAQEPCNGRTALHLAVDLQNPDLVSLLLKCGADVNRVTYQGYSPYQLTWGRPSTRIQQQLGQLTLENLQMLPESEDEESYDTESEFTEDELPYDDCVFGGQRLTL

[4] = Toxicity in Balb/c nude mouse xenografted with human HepG2 cells assessed as increase in body weight at 0.1 to 10 mg/kg, ip administered every 2 days for 20 days and measured every 2 days; assay type: organism-based; conditions: in vivo
HepG2 [5] = assay: Induction of apoptosis in human HepG2 cells assessed as increase in Bax expression up to 4 uM after 24 hrs by Western blot analysis; assay type: functional, cell-based
HepG2 [6] = assay: Induction of apoptosis in human HepG2 cells assessed as increase in apoptotic cell population at 4.0 uM incubated for 24 hrs by Annexin V-FITC/propidium iodide staining based flow cytometry relative to control; assay type: functional
HepG2 [7] = assay: Antitumor activity against human HepG2 cells xenografted in Balb/c nude mouse assessed as tumor volume level at 10 mg/kg, ip administered every 2 days for 20 days and measured every 2 days; assay type: functional
QGY-7703 [8] = assay: Induction of apoptosis in human QGY7703 cells assessed as increase in apoptotic cell population at 2.0 uM incubated for 24 hrs by Annexin V-FITC/propidium iodide staining based flow cytometry relative to control; assay type: functional
HepG2 [9] = assay: Antitumor activity against human HepG2 cells xenografted in Balb/c nude mouse assessed as effect on tumor volume level at 0.1 mg/kg, ip administered every 2 days for 20 days and measured every 2 days; assay type: functional, organism-based
HepG2 [10] = assay: Antitumor activity against human HepG2 cells xenografted in Balb/c nude mouse assessed as effect on tumor volume level at 1 mg/kg, ip administered every 2 days for 20 days and measured every 2 days; assay type: functional, organism-based
Mus musculus [11] = assay: Antiinflammatory activity in human HepG2 cells xenografted Balb/c nude mouse assessed as reduction in TNFalpha protein expression at 0.1 mg/kg, ip administered every 2 days for 20 days and measured every 2 days by immunohistochemistry; assay type: functional, organism-based
Mus musculus [12] = assay: Antiinflammatory activity in human HepG2 cells xenografted Balb/c nude mouse assessed as reduction in TNFalpha protein expression at 10 mg/kg, ip administered every 2 days for 20 days and measured every 2 days by immunohistochemistry; assay type: functional, organism-based
[13] = molecular target: Transcription factor p65 (Homo sapiens) (UniProt Q04206); assay: Inhibition of LPS-induced NFkappaB p65 nuclear translocation in human HepG2 cells at 4 uM incubated for 2 hrs after pre-incubation with LPS for 15 mins by DAPI staining-based immunofluorescence assay; assay type: cell-based
[14] = molecular target: T1, NF-kappa-B inhibitor alpha (Mus musculus); assay: Inhibition of NFkappaB signalling activation in mouse RAW264.7 cells assessed as reduction in LPS-induced IkBalpha phosphorylation at 1 to 4 uM incubated for 2 hrs after pre-incubation with LPS for 15 mins by Western blot analysis; assay type: cell-based
HepG2 [15] = assay: Cytotoxicity against human HepG2 cells assessed as reduction in cell viability incubated for 24 hrs by MTT assay; assay type: functional, cell-based
HepG2 [16] = assay: Induction of apoptosis in human HepG2 cells xenografted in Balb/c nude mouse assessed as reduction in Bcl-2 protein expression at 10 mg/kg, ip administered every 2 days for 20 days and measured every 2 days by immunohistochemistry; assay type: functional, organism-based
RAW264.7 [17] = assay: Antiinflammatory activity in mouse RAW264.7 cells assessed as inhibition of LPS-stimulated TNF-alpha production at 6.0 uM preincubated for 2 hrs followed by LPS stimulaton measured after 22 hrs by ELISA relative to control; assay type: functional
HepG2 [18] = assay: Induction of apoptosis in human HepG2 cells assessed as increase in apoptotic cell population at 2.0 uM incubated for 24 hrs by Annexin V-FITC/propidium iodide staining based flow cytometry relative to control; assay type: functional
QGY-7703 [19] = assay: Cytotoxicity against human QGY7703 cells assessed as reduction in cell viability incubated for 24 hrs by MTT assay; assay type: functional, cell-based
Mus musculus [20] = assay: Antiinflammatory activity in human HepG2 cells xenografted Balb/c nude mouse assessed as reduction in TNFalpha protein expression at 1 mg/kg, ip administered every 2 days for 20 days and measured every 2 days by immunohistochemistry; assay type: functional, organism-based
RAW264.7 [21] = assay: Antiinflammatory activity in mouse RAW264.7 cells assessed as inhibition of LPS-stimulated IL-6 production 6.0 uM preincubated for 2 hrs followed by LPS stimulaton measured after 22 hrs by ELISA relative to control; assay type: functional
SMMC-7721 = assay: Cytotoxicity against human SMMC7721 cells assessed as reduction in cell viability incubated for 24 hrs by MTT assay; assay type: functional, cell-based
[22] = molecular target: Transcription factor p65 (Mus musculus) (UniProt Q04207); assay: Inhibition of LPS-induced NFkappaB p65 nuclear translocation in mouse RAW264.7 cells at 4 uM incubated for 2 hrs after pre-incubation with LPS for 15 mins by DAPI staining-based immunofluorescence assay; assay type: cell-based
[23] = molecular target: Transcription factor p65 (Mus musculus) (UniProt Q04207); assay: Inhibition of NFkappaB activation in mouse RAW264.7 cells assessed as reduction in TNFalpha-induced p65 phosphorylation at 1 to 4 uM incubated for 2 hrs after pre-incubation with LPS for 15 mins by Western blot analysis; assay type: cell-based
HepG2 [24] = assay: Induction of apoptosis in human HepG2 cells assessed as increase in apoptotic cell population at 4.0 uM incubated for 24 hrs by Annexin V-FITC/propidium iodide staining based flow cytometry; assay type: functional
QGY-7703 [25] = assay: Induction of apoptosis in human QGY7703 cells assessed as increase in apoptotic cell population at 4.0 uM incubated for 24 hrs by Annexin V-FITC/propidium iodide staining based flow cytometry; assay type: functional
HepG2 [26] = assay: Induction of apoptosis in human HepG2 cells xenografted in Balb/c nude mouse assessed as reduction in Bcl-2 protein expression at 0.1 mg/kg, ip administered every 2 days for 20 days and measured every 2 days by immunohistochemistry; assay type: functional, organism-based

Transcription factor p65 (Mus musculus), sequence (Q04207 whole entry): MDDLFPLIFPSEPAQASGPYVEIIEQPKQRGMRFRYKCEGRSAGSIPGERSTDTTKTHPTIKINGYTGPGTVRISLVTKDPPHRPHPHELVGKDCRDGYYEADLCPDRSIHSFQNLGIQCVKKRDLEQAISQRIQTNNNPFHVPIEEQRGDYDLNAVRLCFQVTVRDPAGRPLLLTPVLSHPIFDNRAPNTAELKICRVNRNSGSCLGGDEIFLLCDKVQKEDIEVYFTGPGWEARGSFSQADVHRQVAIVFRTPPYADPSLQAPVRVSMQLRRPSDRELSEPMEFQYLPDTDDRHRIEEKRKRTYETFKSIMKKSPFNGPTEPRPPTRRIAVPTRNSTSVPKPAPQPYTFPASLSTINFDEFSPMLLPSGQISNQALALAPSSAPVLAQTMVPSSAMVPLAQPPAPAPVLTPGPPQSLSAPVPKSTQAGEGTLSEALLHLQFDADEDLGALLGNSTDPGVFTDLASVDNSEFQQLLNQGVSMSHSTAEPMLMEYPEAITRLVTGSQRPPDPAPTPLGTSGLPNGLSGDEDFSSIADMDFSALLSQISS
Transcription factor p65 (Homo sapiens), sequence (Q04206 whole entry): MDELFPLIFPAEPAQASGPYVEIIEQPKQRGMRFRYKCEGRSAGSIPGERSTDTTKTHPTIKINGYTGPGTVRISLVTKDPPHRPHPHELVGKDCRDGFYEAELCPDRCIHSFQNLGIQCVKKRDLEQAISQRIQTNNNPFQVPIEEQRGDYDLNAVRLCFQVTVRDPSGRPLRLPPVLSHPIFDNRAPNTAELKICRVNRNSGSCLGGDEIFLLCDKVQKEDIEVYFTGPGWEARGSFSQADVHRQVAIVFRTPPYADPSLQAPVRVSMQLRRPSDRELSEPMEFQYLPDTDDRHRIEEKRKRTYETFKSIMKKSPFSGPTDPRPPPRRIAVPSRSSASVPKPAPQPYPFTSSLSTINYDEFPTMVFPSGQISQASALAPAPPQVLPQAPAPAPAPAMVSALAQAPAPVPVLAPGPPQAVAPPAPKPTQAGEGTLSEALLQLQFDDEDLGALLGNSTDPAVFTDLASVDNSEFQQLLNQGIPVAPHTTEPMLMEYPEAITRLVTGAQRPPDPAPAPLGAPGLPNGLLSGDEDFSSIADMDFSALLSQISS

With `O=C1/C(=C/c2cccnc2)CN(S(=O)(=O)c2ccc(C(F)(F)F)cc2)C/C1=C\c1ccccc1C(F)(F)F` the Activity (HepG2 [1]) was “Active”, the Activity (HepG2 [2]) was “Dose-dependent effect” and the IC50 (L02) was 14300 nM. For the same compound, the inhibition [3] was “Dose-dependent effect”, the Activity [4] was “Non-Toxic” and the Activity (HepG2 [5]) was “Dose-dependent effect”. The Activity (HepG2 [6]) was over 70%, the Activity (HepG2 [7]) was under 200 mm3 and the Activity (QGY-7703 [8]) was 58%. The Activity (HepG2 [9]) was “inactive”, the Activity (HepG2 [10]) was “inactive” and the Activity (Mus musculus [11]) was “inactive”. The Activity (Mus musculus [12]) was “Active”, the inhibition [13] was “Active” and the inhibition [14] was “Dose-dependent effect”. The Activity (HepG2 [15]) was “Dose-dependent effect”, the IC50 (HepG2 [15]; HepG2, 24 h) was 1710 nM and the Activity (HepG2 [16]) was “Active”. For the same compound, the inhibition at 6 µM (RAW264.7 [17]) was at most 15%, the Activity (HepG2 [18]) was 40% and the Activity (QGY-7703 [19]) was “Dose-dependent effect”. For the same compound, the IC50 (QGY-7703 [19]; QGY-7703, 24 h) was 1500 nM, the Activity (Mus musculus [20]) was “Active” and the “inhibition (INH)” value (RAW264.7 [21]) was “<=15%”. For the same compound, the Activity (SMMC-7721) was “Dose-dependent effect”, the IC50 (SMMC-7721; SMMC-7721, 24 h) was 1730 nM and the inhibition [22] was “Active”. The inhibition [23] was “Dose-dependent effect”, the Activity (HepG2 [24]) was “Dose-dependent effect” and the Activity (QGY-7703 [25]) was “Dose-dependent effect”. For the same compound, the Activity (HepG2 [26]) was “inactive”.
